US8361929B2, “Method of restoring male sterility in gramineous plants and male sterility restorative agent” (Tohoku University, priority 2009, dated 2013)
“Also recorded” adds a separate entry of the source.

Key:
Type in all cases: in vivo
[1] = system: barley (Hordeum vulagare L. cv Haruna-nijo); test: Side effects of spread auxin on the plants (leaf withering)
From the text: (§1) In an experiment to verify the effect of an auxin, the above-described nursery soil for horticultural was used. In addition, to facilitate the control of an auxin aqueous solution treatment, each pair of two rectangular planter boxes (60 mm×60 mm×100 mm (length×width×height), AGC TECHNO GLASS CO., LTD., Plant Box (Model No. CUL-JAR300)) were vertically stacked on each other. A hole having a diameter of about 1 cm was formed at the bottom center of the upper box. A 6-cm wick for an alcohol lamp with a knot was passed through the hole. Then, 300 ml of vermiculite (NITTAI Co., Ltd., vermiculite for agricultural and horticultural use) was packed thereabove. In the lower box, 0.2% (v/v) of HYPONEX (HYPONeX JAPAN CORP., LTD.) was placed as a nutrient water source for plants. Seeds of Hordeum vulagare L. cv Haruna-nijo having been stored in the dark at 4° C. were stimulated to germinate in the dark at 25° C. for 48 hours. The germinated seeds were sown at four seeds per pot at the four corners of the upper container. These sown seeds were grown in an artificial climate chamber (Nippon Medical & Chemical Instruments Co., Ltd., BIOTRON LH300RDS) under conditions of 20° C. during the day, 15° C. at night, and a 16-hour photoperiod. As the light source, 20 plant growing fluorescent tubes were used (16 tubes; National FL40S FR-P, and 4 tubes; National, FL20S FR-P).
(§2) Also in this cultivation method, the fifth leaves emerge and start to develop on Day 18 or 19 after the sowing as in the case where the culture soil was used, where the day of the sowing is regarded as Day 0. The plants were cultivated under high-temperature conditions of 30° C. during the day, 25° C. at night, and a 16-hour photoperiod from Day 19 after the sowing. Thus, a high-temperature treatment was conducted for five days (120 hours). Thereafter (on Day 24 after the sowing), the conditions were changed back to the normal conditions of 20° C. during the day, 15° C. at night, and a 16-hour photoperiod.
First, 10^−3 M, 10^−2 M, and 10^−1 M stock solutions in dimethyl sulfoxide (DMSO: Wako Pure Chemical Industries, Ltd., Production Code: 043-07216) were prepared by using each of indole-3-acetic acid (IAA: Wako Pure Chemical Industries, Ltd., Production Code: 94-00183), 1-naphthyl acetic acid (NAA: Wako Pure Chemical Industries, Ltd., Production Code: 148-00092), and 2,4-dichlorophenoxyacetic acid (2,4-D: Wako Pure Chemical Industries, Ltd., Production Code: 040-18532). The stock solutions were stored in the dark at −20° C. until used. These stock solutions were thawed immediately before spread, and each were diluted 1000-fold with distilled water. Thus, solutions were prepared at three levels of 10^−6 M, 10^−5 M, and 10^−4 M, and used as auxin aqueous solutions. […]

[2] = system: barley (Hordeum vulagare L. cv Haruna-nijo); test: Anther length at heading stage after spreading auxin aqueous solutions; settings: control groups (suitable temperature cultivation); 10^−6 M, 10^−5 M or 10^−4 M
From the text: as §1
as §2, with “photoperiod. […]” for “photoperiod.”

[3] = system: barley (Hordeum vulagare L. cv Haruna-nijo); test: Pollen maturity, potassium iodide staining of anthers; settings: control groups (suitable temperature cultivation); 10^−6 M, 10^−5 M or 10^−4 M
From the text: as §1
as §2, with “photoperiod. […]” for “photoperiod.”

[4] = system: barley (Hordeum vulagare L. cv Haruna-nijo); test: Seed fertility (seeds produced in panicles) after auxin spreading; settings: for seeds produced in panicles: high-temperature treated groups, 10^−4 M
From the text: as §1
as §2, with “photoperiod. […]” for “photoperiod.”

[5] = high-temperature treated samples, 10^−4 M

SMILES | negative effect on the plants (leaves) ([1]; control groups (suitable temperature cultivation), 10^−4 M) | negative effect / side effects on the plants [1, 5] | change of anther length at heading stage [2] | pollen formation [3] | negative effect / side effects on the plants ([1]; in vivo) | seeds produced in panicles [4] [%] | seed fertility restoration (FIG. 10) ([4]; individual of high-temperature treated group, spread at 10^−4 M)
O=C(O)COc1ccc(Cl)cc1Cl [2,4-D, 2,4-dichlorophenoxyacetic acid] | leaves stared to wither at an early stage | leaves started to wither at an early stage; also recorded: withering up at the early stage | change was hardly observed | formed normally | – | – | –
O=C(O)Cc1c[nH]c2ccccc12 [IAA, indole-3-acetic acid] | – | – | change was hardly observed | formed normally | side effects were hardly observed | ~90 | –
O=C(O)Cc1cccc2ccccc12 [NAA, 1-naphthyl acetic acid] | – | side effects were hardly observed | change was hardly observed | formed normally | – | ~90 | seed fertility restoration
